Molecules are shown by their SMILES. Counter-ions that a name gives are not always drawn. Like-named read-outs stand apart in the source and are kept apart here.

The subject of data set [1] is CYP3A4 (pregnane X receptor). Description: In vitro metabolic gene induction studies. Format: cell-based, human.
From the text: Solvent Code: DMSO solvent Prep: Unit: uM
lsofoIm Coder CYP3A4 Cell line: DP)e
Induction mechanism: pregnane X receptor
In data set [2] the test system is CYP1A2 (aryl hydrocarbon receptor). Kind of data set: In vitro metabolic gene induction studies. In kind it is cell-based, human. The procedure: Anticonvulsant Screening prog ram
Test 28 - In Vitro Metabolic Gene Induction Studies
SolventCode: DMSO Solvent Prep: Unit: uM
(§1) Cell line source: Puracyp Molecular 257.7590
DateStarted: O5+eb-2O1O Date Completed: 15+eb-2010 Weig ht:
Reference: Lamb boolc#t! p9.77
lsoform Code: CyplAz Cell line: lAzDRE
Inducffon mechanism: aryl hydrocarbon receptor
Concentration Induction Cell
Fold +/- S.D Viability +/- S.D
0 1 +t- o.cs n 1n +L 2.2o n
(§2) Max induction 2 fold @ 200uM
. '^ (calculated): slgnificant decrease in viability at this concentation in vitso.
(§3) (1 picture or pasted object on this page, not shown here)

The subject of data set [3] is CYP3A1 (pregnane X receptor). Description: In vitro metabolic gene induction studies. Format: cell-based, rat. Here is the method:
Test 28 - In Vitro Metabolic Gene lnduction Studies
:.!,iIir:- i- :: ar!-'{}-: i
Solvent Code: DMSO Solvent Prep: Unit: uM
as §1
Date Staded: 05+eb-20'10 Date Completed: 15-Feb-2010 Weight:
Reference: Lamb bool#8 pg. 77 […]
lsoform Code: CYP3A1 Cell line: RPXR lnduc60n mechanism:pregnane X receptor
Concentration lnduction Cell […]
Note: Box checked if data is significantty different.
as §2
(calculated): signlficant decrease in vlabllity at this conc€nbaffon in vitro.
as §3

A short description of data set [4]: Pharmacokinetics in plasma. Format: in vivo, rats. Conditions: for bioavailability / AUC(0-t) / C0 / MRT / clearance / Vd / k el / CL/F / Cmax / Tmax / Vd/F: male, Wistar, rat, plasma; for bioavailability: po; for bioavailability / AUC(0-t) / C0 / MRT / clearance / Vd / k el / CL/F / Cmax / Tmax / Vd/F / t0.5λz: rats; for Vd: read-out: Vz; for k el: read-out: λz (converted); for Vd/F: read-out: Vz/F. The procedure: Pharmacokinetic study design. Male Wistar rats (250–300 g) bred in-house from progenitors obtained from Charles River Laboratories (Sulzfed, Germany) were used in this study. Animals were fasted overnight prior to drug administration but had free access to water. […] Moreover, this compound dissolved in the same solvent was administered orally (po) by oral gavage at two doses (50 and 100 mg/kg) (n = 4). Blood samples were collected from the catheter at various time points up to 5 h. […] The animals were anaesthetized (50/7.5 mg/kg ketamine/xylazine, ip) and sacrificed by decapitation at 5, 15, 30, 60, 120, 180, and 300 min after compound administration (n = 4 per time point). Blood was collected into heparinized tubes and organs such as liver, brain, lungs, kidneys, and heart were harvested. The blood samples were centrifuged at 4000 rpm for 10 min (EBA 12R, Hettich, Germany). Plasma and organs were stored at − 80 °C until analysis.
Determination of KM-408 in plasma and tissue homogenates. Before analysis, tissue samples were homogenized in phosphate-buffered saline, pH 7.4 (1:4, w/v) with a tissue homogenizer (TH220; Omni International, Inc., Warrenton, VA, USA). Plasma (100 μL) or homogenate samples (500 μL) were mixed with an internal standard (IS) solution (R-( +)-propranolol, 4 μg/mL in methanol). Then, 20 μL of sodium carbonate (0.125 M) was added to each tube and the samples were extracted with 3 mL of diethyl ether by vortexing for 1 min. After centrifugation (3000 rpm, 15 min), the organic phase was transferred to a new tube and evaporated to dryness under a gentle stream nitrogen at 37 °C in a water bath. The dry residue was reconstituted in 100 μL of acetonitrile. Subsequently, 50 μL of 0.2 M borate buffer (pH = 7.0) and 50 μL of 6 mM FMOC-Cl solution in acetonitrile were added. After vortex-mixing for 1 min, the samples were kept for 30 min at 40 °C in a dry heat sterilizer (model MOV-112S, Sanyo, Japan). The reaction was stopped by the addition of 0.1 M solution of glycine in water (30 μL) and vortexing for 1 min. The reaction mixture was transferred directly into the autosampler vials. The chromatographic system (Merck-HITACHI, Japan) consisted of an L-2485 spectrofluorimetric detector operating at the excitation and emission wavelengths of 267 and 316 nm, respectively, an L-2130 pump, an L-2350 column oven, and an L-2200 autosampler. The EZChrom Elite Client/Server version 3.2 (Agilent Technologies Inc.) was used for data acquisition and processing. […] The column temperature was maintained at 50 °C. The mobile phase consisted of a mixture of acetonitrile and water (67:33, v/v), and pumped at a flow rate of 1 mL/min.
Pharmacokinetic data analysis. Plasma and tissue concentration versus time profiles were analyzed by the non-compartmental approach in Phoenix WinNonlin v. 6.3 software (Pharsight Corporation, Mountain View, CA, USA). The peak concentration (Cmax) and the time to reach Cmax (tmax) were obtained directly from individual concentration–time profiles. The initial concentration (C0) after an iv dosing was obtained by extrapolation to zero time. The linear trapezoidal rule was applied to calculate the areas under the concentration–time curve (AUC) from the time of dosing to the last measured data point (AUC0-t) or infinity (AUC0-∞). The terminal slope (λz) was estimated by linear regression and the terminal half-life (t0.5λz) was calculated as ln2/λz. The volume of distribution based on the terminal phase (Vz) was calculated as: Dose/(λz ∙ AUC0-∞), whereas clearance (CL) was obtained from the following equation: Dose/AUC0-∞. The mean residence time (MRT) was defined as: AUMC0-∞/AUC0-∞, where AUMC is the area under the first moment curve. The absolute bioavailability (Fa) was calculated according to the equation: (AUCpo./Dosepo)/(AUCiv/Doseiv).

With `CCC(CO)NCCOc1c(C)cccc1Cl` (centres unmarked) [Compound 4, R,S-2-((2-(2-chloro-6-methylphenoxy)ethyl)amino)butan-1-ol], the “Max induction (calculated)” value in data set [1] (@ 200uM) is on record as 12 fold; in data set [2] (@ 200uM), 2 fold; in data set [3] (@ 200uM), 2 fold. In addition, the EC50 in data set [1] (read-out: EC50 (calculated)) was 100 µM; in data set [2] (1A2DRE cell line, read-out: EC50 (calculated)) it was 37 µM; in data set [3] (RPXR cell line, read-out: EC50 (calculated)), 74 µM.

In the case of `CCC(CO)NCCOc1c(C)cccc1Cl` (centres unmarked) [KM-408, R,S-2-((2-(2-chloro-6-methylphenoxy)ethyl)amino)butan-1-ol hydrochloride], in data set [4] (5 mg/kg iv, immediately after administration), the plasma concentration is listed as 1.48*10^–5 M. In data set [4] (50 mg/kg, po 50 mg/kg, read-out: F), the bioavailability is 3.9%. In addition, the bioavailability in data set [4] (100 mg/kg, po 100 mg/kg, read-out: F) was found to be 3.6%. In data set [4] (100 mg/kg, po 50 and 100 mg/kg, read-out: absolute bioavailability), the bioavailability was 3.6 to 3.9%. In data set [4] (iv 1 mg/kg), the AUC(0-t) was 207 ng·h/mL, the C0 was determined as 371 ng/mL, the MRT was 51.7 min and the clearance came out at 80 mL/min/kg. Also, in data set [4] (iv 1 mg/kg), the Vd turned out to be 2.53 L/kg, the k el is 0.000533 s⁻¹ and the t0.5λz came to 21.80 min. In data set [4] (iv 5 mg/kg), this compound gave an AUC(0-t) of 1210 ng·h/mL, a C0 of 4360 ng/mL, an MRT of 43.5 min and a clearance of 70 mL/min/kg. In data set [4] (iv 5 mg/kg), the Vd worked out at 3.77 L/kg, the k el is 0.0003 s⁻¹ and the t0.5λz was found to be 37.94 min. For the same compound, in data set [4] (iv 10 mg/kg), the AUC(0-t) was 2720 ng·h/mL, the C0 was 5330 ng/mL, the MRT was 42.3 min and the clearance turned out to be 60 mL/min/kg. For the same compound, in data set [4] (iv 10 mg/kg), the Vd is 2.3 L/kg, the k el is 0.00045 s⁻¹ and the t0.5λz was 26.02 min. In data set [4] (po 50 mg/kg), this compound had an AUC(0-t) of 430 ng·h/mL, a CL/F of 1950 mL/min/kg, a Cmax of 313 ng/mL and an MRT of 79.1 min. Also, in data set [4] (po 50 mg/kg), the Tmax was 30 min, the Vd/F is 80.3 L/kg, the k el was 0.000383 s⁻¹ and the t0.5λz turned out to be 30.59 min. Moreover, in data set [4] (po 100 mg/kg), the AUC(0-t) was 807 ng·h/mL, the CL/F stood at 2060 mL/min/kg, the Cmax was 573 ng/mL and the MRT is 83 min. Besides, in data set [4] (po 100 mg/kg), the Tmax was 30 min, the Vd/F was 104 L/kg, the k el is 0.000333 s⁻¹ and the t0.5λz came out at 34.98 min.

One may read the EC50 as the concentration giving half of the maximal effect. By AUC(0-t) is commonly meant the area under the concentration-time curve up to a stated or last time point. Low values mean less exposure, high ones more exposure. By MRT is commonly meant the average time that molecules of a dose stay in the body. Broadly, the clearance is a measure of how efficiently the substance is removed, as volume per time. Lower therefore signals a low capacity for elimination. As a reminder, the CL/F is the apparent clearance, not corrected for the fraction that reaches the circulation. By Cmax is commonly meant the highest concentration seen after dosing. As a reminder, the Tmax is the time at which the peak concentration occurs.

Source of the values: publication PMC9889419 (Pharmacological Reports, 2022).
